Data from PubChem BioAssay AID1845199 (Molecular Pharmacology Branch, DTP, NCI, 2023).

Tested on: 556581-035-R-J1 tumor spheroid viability, % test/control
Assay: Anticancer human tumor 556581-035-R-J1 patient-derived ovarian carcinoma cell line growth inhibition
Conditions: spheroids with HUVEC and MSC; for IC50: curve of first compound; for viability, T/C: stronger effect = lower value
How it was run: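 Single agents and combinations were tested on spheroids built from tumor cells plus HUVEC and hMSC, at half-log dilutions starting at or near clinical Cmax, else 10 microM; final DMSO 0.25% (v/v).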

[1] = second compound 0.003 µM, first compound 0.0316 µM
[2] = second compound 0.003 µM, first compound 0.1 µM
[3] = second compound 0.003 µM, first compound 0.316 µM
[4] = second compound 0.003 µM, first compound 1 µM
[5] = second compound 0.003 µM, first compound 3.16 µM
[6] = second compound 0.003 µM, first compound 10 µM
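Also: spheroids exposed to compounds for 7 days before viability read.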

With `Cc1cc(C)c(CNC(=O)c2cc(-c3ccc(CN4CCOCC4)cc3)cc3c2cnn3C2CCCC2)c(=O)[nH]1` + CC[C@@]1(O)C(=O)OCc2c1cc1n(c2=O)Cc2cc3c(CN(C)C)c(O)ccc3nc2-1 the IC50 (second compound 0.003 µM) was greater than 10 µM, the IC50 (second compound 0.00949 µM) was greater than 10 µM and the IC50 (second compound 0.03 µM) was greater than 10 µM. It also gave an IC50 (second compound 0.0949 µM) of 4.51 µM, an IC50 (second compound 0.3 µM) of less than 0.0316 µM and a viability, T/C [1] of 97%. It also gave a viability, T/C [2] of 85.4%, a viability, T/C [3] of 89% and a viability, T/C [4] of 84%. For the same molecule, the viability, T/C [5] was 99.7%, the viability, T/C [6] was 87.4% and the viability, T/C (second compound 0.00949 µM, first compound 0.0316 µM) was 95.9%. The viability, T/C (second compound 0.00949 µM, first compound 0.1 µM) was 87.7%, the viability, T/C (second compound 0.00949 µM, first compound 0.316 µM) was 78.8% and the viability, T/C (second compound 0.00949 µM, first compound 1 µM) was 72.5%. It also gave a viability, T/C (second compound 0.00949 µM, first compound 3.16 µM) of 87.4%, a viability, T/C (second compound 0.00949 µM, first compound 10 µM) of 83.8% and a viability, T/C (second compound 0.03 µM, first compound 0.0316 µM) of 74.2%. The viability, T/C (second compound 0.03 µM, first compound 0.1 µM) was 72.9%, the viability, T/C (second compound 0.03 µM, first compound 0.316 µM) was 70.3% and the viability, T/C (second compound 0.03 µM, first compound 1 µM) was 67.1%. It also gave a viability, T/C (second compound 0.03 µM, first compound 3.16 µM) of 66.8%, a viability, T/C (second compound 0.03 µM, first compound 10 µM) of 70.4% and a viability, T/C (second compound 0.0949 µM, first compound 0.0316 µM) of 60.1%. For the same molecule, the viability, T/C (second compound 0.0949 µM, first compound 0.1 µM) was 56.6%, the viability, T/C (second compound 0.0949 µM, first compound 0.316 µM) was 57.1% and the viability, T/C (second compound 0.0949 µM, first compound 1 µM) was 56.3%. The viability, T/C (second compound 0.0949 µM, first compound 3.16 µM) was 53.5%, the viability, T/C (second compound 0.0949 µM, first compound 10 µM) was 43.1% and the viability, T/C (second compound 0.3 µM, first compound 0.0316 µM) was 19.3%. The viability, T/C (second compound 0.3 µM, first compound 0.1 µM) was 22.9%, the viability, T/C (second compound 0.3 µM, first compound 0.316 µM) was 19.6% and the viability, T/C (second compound 0.3 µM, first compound 1 µM) was 19.2%. The viability, T/C (second compound 0.3 µM, first compound 3.16 µM) was 15.6% and the viability, T/C (second compound 0.3 µM, first compound 10 µM) was 11.3%.
With `[2H]c1nc(C)nc([2H])c1-c1cc(NC[C@@H](C)c2cccc3c(C(=O)NC)ccnc23)ncn1` + COc1cc2c(cc1O)CCNC21CSC2c3c(OC(C)=O)c(C)c4c(c3C(COC1=O)N1C(O)C3Cc5cc(C)c(OC)c(O)c5C(C21)N3C)OCO4 the IC50 (second compound 30 pM) was greater than 10 µM, the IC50 (second compound 94.9 pM) was greater than 10 µM and the IC50 (second compound 0.0003 µM) was greater than 10 µM. It also gave an IC50 (second compound 0.000949 µM) of less than 0.0316 µM, an IC50 (second compound 0.003 µM) of less than 0.0316 µM and a viability, T/C (second compound 30 pM, first compound 0.0316 µM) of 105%. It also gave a viability, T/C (second compound 30 pM, first compound 0.1 µM) of 119%, a viability, T/C (second compound 30 pM, first compound 0.316 µM) of 116% and a viability, T/C (second compound 30 pM, first compound 1 µM) of 120%. It also gave a viability, T/C (second compound 30 pM, first compound 3.16 µM) of 110%, a viability, T/C (second compound 30 pM, first compound 10 µM) of 116% and a viability, T/C (second compound 94.9 pM, first compound 0.0316 µM) of 113%. For the same molecule, the viability, T/C (second compound 94.9 pM, first compound 0.1 µM) was 118%, the viability, T/C (second compound 94.9 pM, first compound 0.316 µM) was 108% and the viability, T/C (second compound 94.9 pM, first compound 1 µM) was 113%. It also gave a viability, T/C (second compound 94.9 pM, first compound 3.16 µM) of 118%, a viability, T/C (second compound 94.9 pM, first compound 10 µM) of 125% and a viability, T/C (second compound 0.0003 µM, first compound 0.0316 µM) of 101%. The viability, T/C (second compound 0.0003 µM, first compound 0.1 µM) was 110%, the viability, T/C (second compound 0.0003 µM, first compound 0.316 µM) was 102% and the viability, T/C (second compound 0.0003 µM, first compound 1 µM) was 104%. It also gave a viability, T/C (second compound 0.0003 µM, first compound 3.16 µM) of 108%, a viability, T/C (second compound 0.0003 µM, first compound 10 µM) of 109% and a viability, T/C (second compound 0.000949 µM, first compound 0.0316 µM) of 40.9%. The viability, T/C (second compound 0.000949 µM, first compound 0.1 µM) was 46.4%, the viability, T/C (second compound 0.000949 µM, first compound 0.316 µM) was 42.9% and the viability, T/C (second compound 0.000949 µM, first compound 1 µM) was 46.3%. It also gave a viability, T/C (second compound 0.000949 µM, first compound 3.16 µM) of 33.9%, a viability, T/C (second compound 0.000949 µM, first compound 10 µM) of 31.1% and a viability, T/C [1] of 1.6%. For the same molecule, the viability, T/C [2] was 0.73%, the viability, T/C [3] was 0.75% and the viability, T/C [4] was 0.97%. The viability, T/C [5] was 1.05% and the viability, T/C [6] was 1.32%.
